ChEMBL document CHEMBL5465560, “Selectivity Literature for EUbOPEN Chemogenomic Library” (2024)
Values belong to the compound of their own block, whether it stands above or below them.

Assays:
[1] = biological target: Leukocyte tyrosine kinase receptor (Homo sapiens, UniProt P29376); assay: Selectivity interaction (KinomeScan (DiscoverX)) EUB0000655a LTK; details: at 10 µM
[2] = biological target: Serine/threonine-protein kinase SIK2 (Homo sapiens) (UniProt Q9H0K1); assay: Selectivity interaction (KinomeScan (DiscoverX)) EUB0000655a SIK2; details: at 10 µM
[3] = biological target: RAC-alpha serine/threonine-protein kinase (Homo sapiens, UniProt P31749); assay: Selectivity interaction (KinomeScan (DiscoverX)) EUB0000607a AKT1; details: at 10 µM
RAC-alpha serine/threonine-protein kinase, sequence (P31749 whole entry): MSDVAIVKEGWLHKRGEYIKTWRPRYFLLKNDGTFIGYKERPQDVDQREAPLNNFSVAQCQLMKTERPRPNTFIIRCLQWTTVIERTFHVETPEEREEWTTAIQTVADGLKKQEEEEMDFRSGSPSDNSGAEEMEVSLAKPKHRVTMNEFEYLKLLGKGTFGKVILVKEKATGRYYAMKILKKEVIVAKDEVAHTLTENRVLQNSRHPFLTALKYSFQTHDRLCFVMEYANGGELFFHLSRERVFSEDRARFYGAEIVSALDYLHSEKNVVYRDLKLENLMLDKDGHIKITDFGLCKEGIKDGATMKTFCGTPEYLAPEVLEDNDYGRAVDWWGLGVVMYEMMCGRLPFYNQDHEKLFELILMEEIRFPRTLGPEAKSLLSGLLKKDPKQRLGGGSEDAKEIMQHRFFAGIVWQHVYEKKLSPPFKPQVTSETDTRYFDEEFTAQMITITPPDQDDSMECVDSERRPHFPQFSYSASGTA

[4] = biological target: T1, Dual specificity mitogen-activated protein kinase kinase 7 (Homo sapiens) (UniProt O14733); assay: Selectivity interaction (KinomeScan (DiscoverX)) EUB0001619a MAP2K7; details: at 1 µM
T1 sequence (whole entry): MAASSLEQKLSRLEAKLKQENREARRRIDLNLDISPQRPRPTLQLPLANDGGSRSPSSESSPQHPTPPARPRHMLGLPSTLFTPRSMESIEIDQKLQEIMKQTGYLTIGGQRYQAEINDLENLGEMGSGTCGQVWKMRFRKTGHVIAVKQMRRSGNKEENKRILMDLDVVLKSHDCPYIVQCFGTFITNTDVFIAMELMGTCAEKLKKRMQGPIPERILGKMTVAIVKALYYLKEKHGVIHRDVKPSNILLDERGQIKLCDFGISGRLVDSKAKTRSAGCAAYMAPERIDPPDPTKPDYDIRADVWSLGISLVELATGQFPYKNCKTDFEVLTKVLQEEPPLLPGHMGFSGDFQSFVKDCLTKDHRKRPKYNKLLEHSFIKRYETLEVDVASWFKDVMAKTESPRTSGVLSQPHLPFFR

[5] = biological target: Cyclin-dependent kinase 9 (Homo sapiens, UniProt P50750); assay: Selectivity interaction (Kinase panel (KiNativ target engagement assay in Jurkat cells)) EUB0001635a CDK9; format: cell-based; details: at 1 µM
Cyclin-dependent kinase 9, sequence (P50750 whole entry): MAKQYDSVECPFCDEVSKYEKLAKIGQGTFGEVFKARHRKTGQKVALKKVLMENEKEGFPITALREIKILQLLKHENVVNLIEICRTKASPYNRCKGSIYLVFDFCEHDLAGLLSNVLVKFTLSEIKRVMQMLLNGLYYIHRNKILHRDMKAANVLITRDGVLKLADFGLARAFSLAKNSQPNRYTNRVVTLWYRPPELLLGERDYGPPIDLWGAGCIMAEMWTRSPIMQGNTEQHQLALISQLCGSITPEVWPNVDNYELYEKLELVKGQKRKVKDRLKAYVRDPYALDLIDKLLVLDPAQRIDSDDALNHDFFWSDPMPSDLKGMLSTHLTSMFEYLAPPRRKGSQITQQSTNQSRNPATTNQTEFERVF

[6] = biological target: MAP/microtubule affinity-regulating kinase 3 (Homo sapiens) (UniProt P27448); assay: Selectivity interaction (Kinase panel (KiNativ target engagement assay in Jurkat cells)) EUB0001635a MARK3; format: cell-based; details: at 1 µM
MAP/microtubule affinity-regulating kinase 3 (Homo sapiens), sequence (P27448 whole entry, looked up): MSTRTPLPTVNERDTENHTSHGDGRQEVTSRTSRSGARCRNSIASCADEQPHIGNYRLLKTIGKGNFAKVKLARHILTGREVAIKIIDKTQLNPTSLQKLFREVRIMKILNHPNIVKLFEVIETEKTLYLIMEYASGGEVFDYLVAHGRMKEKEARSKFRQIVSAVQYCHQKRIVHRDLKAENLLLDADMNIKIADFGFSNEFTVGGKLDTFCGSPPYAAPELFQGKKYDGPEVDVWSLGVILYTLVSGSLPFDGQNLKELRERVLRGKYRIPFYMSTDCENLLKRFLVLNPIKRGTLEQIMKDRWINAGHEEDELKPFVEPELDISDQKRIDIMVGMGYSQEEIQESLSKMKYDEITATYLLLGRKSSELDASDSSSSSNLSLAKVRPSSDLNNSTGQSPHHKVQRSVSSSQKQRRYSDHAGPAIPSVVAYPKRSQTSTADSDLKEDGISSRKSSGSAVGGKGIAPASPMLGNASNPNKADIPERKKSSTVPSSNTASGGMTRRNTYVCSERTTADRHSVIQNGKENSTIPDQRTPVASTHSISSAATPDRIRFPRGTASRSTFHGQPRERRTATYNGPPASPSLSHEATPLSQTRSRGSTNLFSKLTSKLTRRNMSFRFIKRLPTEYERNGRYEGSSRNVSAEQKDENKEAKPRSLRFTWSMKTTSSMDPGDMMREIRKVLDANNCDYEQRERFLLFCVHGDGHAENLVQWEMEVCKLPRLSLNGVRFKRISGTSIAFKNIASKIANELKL

[7] = biological target: T2, Mitogen-activated protein kinase 12 (Homo sapiens) (UniProt P53778); details: at 10 µM
T2 sequence (whole entry): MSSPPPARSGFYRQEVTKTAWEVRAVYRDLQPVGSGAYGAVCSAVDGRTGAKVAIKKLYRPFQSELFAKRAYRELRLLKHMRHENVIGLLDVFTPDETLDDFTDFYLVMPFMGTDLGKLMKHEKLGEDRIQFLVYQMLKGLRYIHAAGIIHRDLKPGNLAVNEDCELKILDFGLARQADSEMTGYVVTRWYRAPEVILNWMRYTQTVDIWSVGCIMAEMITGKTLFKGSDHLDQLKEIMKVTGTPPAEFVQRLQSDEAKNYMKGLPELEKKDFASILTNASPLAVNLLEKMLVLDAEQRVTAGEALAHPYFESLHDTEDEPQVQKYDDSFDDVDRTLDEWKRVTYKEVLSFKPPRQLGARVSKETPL

[8] = biological target: Serine/threonine-protein kinase Nek7 (Homo sapiens) (UniProt Q8TDX7); details: at 10 µM
Serine/threonine-protein kinase Nek7 (Homo sapiens), sequence (Q8TDX7 whole entry, looked up): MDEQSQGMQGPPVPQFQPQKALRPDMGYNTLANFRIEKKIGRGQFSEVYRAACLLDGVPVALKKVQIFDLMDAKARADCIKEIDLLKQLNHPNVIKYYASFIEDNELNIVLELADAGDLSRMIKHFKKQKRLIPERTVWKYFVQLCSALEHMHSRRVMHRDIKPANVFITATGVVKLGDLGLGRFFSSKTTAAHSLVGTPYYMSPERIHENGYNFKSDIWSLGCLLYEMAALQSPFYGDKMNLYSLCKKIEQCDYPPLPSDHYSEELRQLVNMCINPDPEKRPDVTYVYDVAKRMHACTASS

[9] = biological target: Cyclin-dependent kinase 2 (Homo sapiens, UniProt P24941); assay: Selectivity interaction (ActivX KiNativ screen (kinase selectivity in THP-1 cell lysates)) EUB0000639a CDK2; format: subcellular; details: lysate
[10] = biological target: T3, Serine/threonine-protein kinase TBK1 (Homo sapiens) (UniProt Q9UHD2); assay: Selectivity interaction (ActivX KiNativ screen (kinase selectivity in THP-1 cell lysates)) EUB0000639a TBK1; format: subcellular; details: lysate, at 0.04 µM
T3 sequence (whole entry): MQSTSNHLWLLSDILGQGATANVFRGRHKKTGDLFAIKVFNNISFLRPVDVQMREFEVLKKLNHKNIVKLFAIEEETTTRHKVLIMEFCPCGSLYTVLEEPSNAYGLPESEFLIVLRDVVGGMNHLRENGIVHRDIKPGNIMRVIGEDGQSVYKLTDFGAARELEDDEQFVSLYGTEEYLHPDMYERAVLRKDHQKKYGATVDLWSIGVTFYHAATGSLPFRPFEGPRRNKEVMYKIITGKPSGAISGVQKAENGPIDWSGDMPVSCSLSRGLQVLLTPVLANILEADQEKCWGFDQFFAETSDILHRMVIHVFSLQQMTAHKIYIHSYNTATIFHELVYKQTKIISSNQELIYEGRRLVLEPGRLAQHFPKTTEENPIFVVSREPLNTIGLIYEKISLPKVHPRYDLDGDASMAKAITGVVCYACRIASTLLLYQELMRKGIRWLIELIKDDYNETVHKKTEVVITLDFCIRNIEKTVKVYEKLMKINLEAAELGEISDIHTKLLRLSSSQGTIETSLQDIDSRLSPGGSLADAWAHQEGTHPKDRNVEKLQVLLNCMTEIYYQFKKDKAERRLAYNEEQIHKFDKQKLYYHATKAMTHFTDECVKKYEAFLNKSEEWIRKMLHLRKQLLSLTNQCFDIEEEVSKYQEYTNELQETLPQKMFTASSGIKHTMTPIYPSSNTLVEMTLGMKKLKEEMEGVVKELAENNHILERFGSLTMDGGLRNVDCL

[11] = biological target: Serine/threonine-protein kinase N1 (Homo sapiens, UniProt Q16512); assay: Selectivity interaction (KinomeScan (DiscoverX)) EUB0000666a PKN1; details: at 10 µM
Serine/threonine-protein kinase N1, sequence (Q16512 2-942 limits assumed): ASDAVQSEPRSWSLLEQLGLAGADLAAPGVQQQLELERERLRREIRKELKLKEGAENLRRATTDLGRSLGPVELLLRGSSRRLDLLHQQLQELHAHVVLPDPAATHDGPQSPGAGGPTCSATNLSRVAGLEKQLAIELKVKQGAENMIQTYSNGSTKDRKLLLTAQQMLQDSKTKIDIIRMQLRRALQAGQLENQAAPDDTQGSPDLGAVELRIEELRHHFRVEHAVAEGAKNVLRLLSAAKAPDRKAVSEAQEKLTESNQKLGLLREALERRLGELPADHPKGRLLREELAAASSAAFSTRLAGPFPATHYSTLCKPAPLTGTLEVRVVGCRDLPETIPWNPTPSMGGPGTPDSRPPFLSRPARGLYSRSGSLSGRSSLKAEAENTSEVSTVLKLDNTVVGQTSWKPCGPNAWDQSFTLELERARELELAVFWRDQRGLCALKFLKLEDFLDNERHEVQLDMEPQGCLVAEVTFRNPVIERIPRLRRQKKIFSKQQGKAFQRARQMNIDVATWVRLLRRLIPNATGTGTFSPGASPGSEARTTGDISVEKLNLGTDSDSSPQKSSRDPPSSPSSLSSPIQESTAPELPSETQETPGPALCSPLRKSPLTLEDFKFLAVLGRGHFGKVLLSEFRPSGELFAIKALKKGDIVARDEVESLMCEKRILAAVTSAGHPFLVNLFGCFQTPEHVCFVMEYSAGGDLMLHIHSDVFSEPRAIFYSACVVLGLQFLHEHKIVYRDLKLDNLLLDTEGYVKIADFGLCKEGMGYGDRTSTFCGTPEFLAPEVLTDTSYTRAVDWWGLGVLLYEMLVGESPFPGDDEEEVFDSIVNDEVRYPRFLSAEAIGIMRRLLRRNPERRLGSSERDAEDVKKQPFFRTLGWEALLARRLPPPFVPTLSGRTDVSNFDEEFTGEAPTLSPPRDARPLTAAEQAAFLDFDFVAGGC

[12] = biological target: Serine/threonine-protein kinase PAK 1 (Homo sapiens) (UniProt Q13153); assay: Selectivity interaction (KinomeScan (DiscoverX)) EUB0000092b PAK1; details: at 10 µM
Serine/threonine-protein kinase PAK 1 (Homo sapiens), sequence (Q13153 whole entry): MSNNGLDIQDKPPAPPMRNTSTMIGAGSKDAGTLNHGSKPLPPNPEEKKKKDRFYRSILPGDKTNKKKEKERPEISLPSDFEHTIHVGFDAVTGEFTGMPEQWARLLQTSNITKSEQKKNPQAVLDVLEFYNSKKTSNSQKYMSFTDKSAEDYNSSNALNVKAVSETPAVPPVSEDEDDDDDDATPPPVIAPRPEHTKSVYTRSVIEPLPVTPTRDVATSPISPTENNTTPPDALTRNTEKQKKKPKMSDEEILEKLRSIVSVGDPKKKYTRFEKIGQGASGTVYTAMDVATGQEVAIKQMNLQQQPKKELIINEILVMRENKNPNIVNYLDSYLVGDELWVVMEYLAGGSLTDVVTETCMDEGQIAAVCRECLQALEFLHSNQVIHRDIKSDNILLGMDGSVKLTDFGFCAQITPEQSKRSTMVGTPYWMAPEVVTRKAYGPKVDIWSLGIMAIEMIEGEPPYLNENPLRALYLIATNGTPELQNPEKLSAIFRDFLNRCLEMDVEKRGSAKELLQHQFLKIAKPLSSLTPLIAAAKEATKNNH

[13] = biological target: Tyrosine-protein kinase BAZ1B (Homo sapiens) (UniProt Q9UIG0); assay: Selectivity interaction (Human bromodomain panel (DSF assay)) EUB0000233b BAZ1B
Tyrosine-protein kinase BAZ1B (Homo sapiens), sequence (Q9UIG0 whole entry): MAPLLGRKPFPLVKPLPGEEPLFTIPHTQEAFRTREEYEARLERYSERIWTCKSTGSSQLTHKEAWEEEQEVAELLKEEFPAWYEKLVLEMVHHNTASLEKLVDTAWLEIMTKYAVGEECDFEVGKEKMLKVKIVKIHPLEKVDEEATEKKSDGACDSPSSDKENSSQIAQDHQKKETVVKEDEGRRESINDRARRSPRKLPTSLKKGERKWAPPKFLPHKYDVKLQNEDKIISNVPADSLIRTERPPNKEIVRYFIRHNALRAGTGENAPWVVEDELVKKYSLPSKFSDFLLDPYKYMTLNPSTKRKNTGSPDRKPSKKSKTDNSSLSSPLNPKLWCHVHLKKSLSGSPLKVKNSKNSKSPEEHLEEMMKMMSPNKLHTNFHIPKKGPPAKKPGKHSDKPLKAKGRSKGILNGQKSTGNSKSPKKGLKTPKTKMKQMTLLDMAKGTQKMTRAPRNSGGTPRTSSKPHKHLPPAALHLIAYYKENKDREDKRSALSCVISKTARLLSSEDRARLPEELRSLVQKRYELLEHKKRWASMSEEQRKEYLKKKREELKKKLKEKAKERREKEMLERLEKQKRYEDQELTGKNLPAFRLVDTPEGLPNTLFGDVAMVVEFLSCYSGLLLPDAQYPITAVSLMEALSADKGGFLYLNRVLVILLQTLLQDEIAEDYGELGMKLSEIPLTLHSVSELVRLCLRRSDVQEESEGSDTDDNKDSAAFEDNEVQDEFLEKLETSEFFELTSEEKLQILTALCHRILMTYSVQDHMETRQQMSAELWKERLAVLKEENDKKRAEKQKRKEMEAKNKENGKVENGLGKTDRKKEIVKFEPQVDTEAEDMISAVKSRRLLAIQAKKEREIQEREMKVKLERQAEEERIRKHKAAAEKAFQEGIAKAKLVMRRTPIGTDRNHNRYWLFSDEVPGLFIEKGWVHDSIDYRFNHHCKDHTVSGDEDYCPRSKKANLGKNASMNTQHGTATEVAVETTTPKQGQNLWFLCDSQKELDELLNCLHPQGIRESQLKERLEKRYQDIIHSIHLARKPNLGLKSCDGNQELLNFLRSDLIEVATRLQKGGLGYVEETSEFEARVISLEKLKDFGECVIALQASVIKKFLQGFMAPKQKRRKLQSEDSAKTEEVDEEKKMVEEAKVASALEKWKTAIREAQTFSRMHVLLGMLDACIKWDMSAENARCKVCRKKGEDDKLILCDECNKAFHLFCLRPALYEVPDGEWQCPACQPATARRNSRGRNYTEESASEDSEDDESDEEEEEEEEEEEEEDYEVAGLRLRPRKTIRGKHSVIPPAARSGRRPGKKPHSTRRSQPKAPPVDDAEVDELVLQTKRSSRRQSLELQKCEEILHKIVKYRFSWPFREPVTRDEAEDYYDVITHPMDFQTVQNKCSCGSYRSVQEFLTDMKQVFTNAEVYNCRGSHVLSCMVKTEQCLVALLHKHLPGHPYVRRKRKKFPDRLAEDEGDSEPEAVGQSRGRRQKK

Structure (SMILES): CN(C)CCOc1ccc(-c2nc(-c3ccncc3)c(-c3ccc4c(c3)CC/C4=N\O)[nH]2)cc1
% of control [1]: 67%
% of control [2]: 91%

Structure (SMILES): CNC(=O)Nc1ccc(-c2nc(N3CC4CCC(C3)O4)c3cnn(C4CCC5(CC4)OCCO5)c3n2)cc1
% of control [3]: 81%

Structure (SMILES): N#Cc1cccc(-c2c[nH]c3ncnc(N4CCOCC4)c23)c1
% of control [4]: 80%

Structure (SMILES): C=CC(=O)Nc1ccc(C(=O)Nc2[nH]nc3c2CN(C(=O)N[C@H](CN(C)C)c2ccccc2)C3(C)C)cc1
% of engagement [5]: -78.1%
% of engagement ([6]; Selectivity number of off-targets 0.0, Selectivity number of targets 233.0, Source Knowledge https://www.sciencedirect.com/science/article/pii/S2451945619300674?via%3Dihub): 16.4%
% of engagement [6]: 19.1%

Structure (SMILES): Cc1cc([C@@H](C)Nc2ccccc2C(=O)O)c2nc(N3CCOCC3)cc(=O)n2c1 [AZD-6482]
% of control [7]: 94%
% of control [8]: 100%

% of inhibition ([9]; at 0.01 µM): 1.9%
% of inhibition ([9]; at 0.04 µM): -4%
% of inhibition ([9]; at 0.2 µM): 12.3%
% of inhibition ([9]; at 1 µM): -8.5%
% of inhibition ([9]; at 5 µM): 6.3%
% of inhibition [10]: -7.8%
Structure (SMILES): CC[C@@H]1[C@H](F)C(=O)N[C@@H]1COc1nccc2cc(C(N)=O)c(OC)cc12 [ZIMLOVISERTIB]

Structure (SMILES): O=C(NOC[C@H](O)CO)c1ccc(F)c(F)c1Nc1ccc(I)cc1F
% of control [11]: 100%

Structure (SMILES): CCC(=O)N1CCN(c2ccc(-n3c(=O)ccc4cnc5ccc(-c6cnc7ccccc7c6)cc5c43)cc2C(F)(F)F)CC1
% of control [12]: 73%

dTM [13]: < 2 K
Structure (SMILES): CN(C)CCCOc1ccc(-c2cc(NCCCn3cccn3)nc(S(C)(=O)=O)n2)cc1
